Laboratory results published in patent US20250320397A1, “NON-PFAS REFRIGERANTS AND METHODS OF COOLING ELECTRONICS” (Honeywell International Inc., priority 2024, published 2025).

Assays:
[1] = Text: This is experimentally determined where a liquid spill is simulated by pouring the liquid of interest into a watch glass. The flammability of, primarily, a single component or a blend is characterized throughout the evaporation of the puddle to dryness. […] The watch glass test is a conservative test because no external heat is applied to the watch glass, which is chilled by the evaporating solvent. The cold watch glass acts as a condenser for the vapors of higher boiling point blend components. In the case where a flammable component is high boiling, its concentration increases throughout the evaporation time, rendering the mixture more flammable than it would be under temperature-controlled blend segregation experiments.
This was experimentally determined where a liquid spill was simulated by pouring HFO-1336pyy(Z) into a watch glass. The flammability was characterized throughout the evaporation of the puddle to dryness.

[2] = Boiling point determination (Example 2); assay type: physicochemical; details: for Bp: Table 3, approximate physical properties; for BP: Table 5
Protocol: (§1) The boiling point (“BP”) of HFO-1336pyy and HFO-1336eyc were determined and the results are reported below in Table 5. The dielectric constant (“Dk”) of HFO-1336pyy and HFO-1336eyc(E) were measured, whereas the Dk of HFO*1336eyc (Z) was calculated using the Kirkwood model as described in Harvey, A. H. and Lemmon, E. W., International Journal of Thermophysics, Vol. 26, No. 1, 2005. The measured dielectric property were determined using the Agilent 85070 Dielectric Probe. All measurements were made at ambient pressure and room temperature (approximately 23° C.). Prior to making measurements, the system was calibrated from 1 GHz to 20 GHz with an open circuit, a short circuit, and DI water (@22.4° C.) standard. The accuracy of the probe is given as: Dielectric constant, er′=er′+/−0.05|er*| with er″=er″+/−0.05|er*| and (loss=er″/er′).

[3] = Dielectric constant measured with Agilent 85070 Dielectric Probe (Example 2); assay type: physicochemical; details: ambient pressure, room temperature (approximately 23° C.); for Dielectric Constant (Dk): Table 3; for Dk: Table 5, probe calibrated 1 GHz to 20 GHz
Protocol: “Dielectric Constant” means the dielectric constant as measured in accordance with ASTM D150-11 statically and at room temperature.
as §1

SMILES	flammability (flame on open flame passed across liquid surface) [1]	Bp [2] [°C]	BP [2] [°C]	Dielectric Constant (Dk) [3]	Dk [3]
F/C=C(\F)C(F)(F)C(F)F [Compound 3, (Z)-1,2,3,3,4,4-hexafluorobut-1-ene]	no flame is observed	40.4	40.4		
F/C(=C(\F)C(F)F)C(F)F [Compound 1, (Z)-1,1,2,3,4,4-hexafluorobut-2-ene]		58.2	58.2	6.72	6.72
F/C(=C(/F)C(F)F)C(F)F [Compound 2, (E)-1,1,2,3,4,4-hexafluorobut-2-ene]	no flame was observed	51.7	51.7	4.34	4.34
F/C=C(/F)C(F)(F)C(F)F [Compound 4, (E)-1,2,3,3,4,4-hexafluorobut-1-ene]	no flame was observed	45.3	45.3	5.09	5.09
